Measurements from patent publication US20260092068A1, “PHYSICAL FORMS OF AN INHIBITOR OF PRC2” (ORIC Pharmaceuticals, Inc., priority 2022, published 2026).

Assay: Stability of Form 2 of Compound 1 under storage conditions (impurities by UPLC, solid form by XRPD)
Type: physicochemical
Conditions: for Storage stability: up to 6 months
Experimental: To measure stability of the Form 2 of Compound 1 under storage conditions, samples of Form 2 of Compound 1 were placed in double low-density polyethylene bags with desiccant between the bags and each was placed into a high-density polyethylene drum. One drum was stored at a temperature of 25° C. and 60% relative humidity (RH), and a second drum was stored at a temperature of 40° C. and 75% RH. Samples of the material were taken from both drums at 1 month, 3 months, and 6 months and the samples were analyzed for the presence of impurities. The amount of the Form 2 of Compound 1, and the amount of any impurities, in each sample was measured by ultra-performance liquid chromatography (UPLC) using the test conditions set and solvent gradients forth in Table 5 and Table 6. The samples were tested to determine the amount remaining of Form 2 at each time point, and the measurements were conducted by x-ray powder diffraction (XRPD) according to USP <941>.

[1] = 25° C. and 60% RH, Initial (Time = zero)
[2] = 40° C. and at 75% RH, Initial (Time = zero)

Total impurities present (% area measured by UPLC) [1]: 1.4 % area
XRPD [1]: Crystalline
Total impurities present (% area measured by UPLC) (25° C. and 60% RH, Time = 1 month): 1.4 % area
XRPD (25° C. and 60% RH, Time = 1 month, consistent with T = 0): Crystalline
Total impurities present (% area measured by UPLC) (25° C. and 60% RH, Time = 3 months): 1.4 % area
XRPD (25° C. and 60% RH, Time = 3 months, consistent with T = 0): Crystalline
Total impurities present (% area measured by UPLC) (25° C. and 60% RH, Time = 6 months): 1.4 % area
XRPD (25° C. and 60% RH, Time = 6 months, consistent with T = 0): Crystalline
Total impurities present (% area measured by UPLC) [2]: 1.4 % area
XRPD [2]: Crystalline
Total impurities present (% area measured by UPLC) (40° C. and at 75% RH, Time = 1 month): 1.4 % area
XRPD (40° C. and at 75% RH, Time = 1 month, consistent with T = 0): Crystalline
Total impurities present (% area measured by UPLC) (40° C. and at 75% RH, Time = 3 months): 1.4 % area
XRPD (40° C. and at 75% RH, Time = 3 months, consistent with T = 0): Crystalline
Total impurities present (% area measured by UPLC) (40° C. and at 75% RH, Time = 6 months): 1.4 % area
XRPD (40° C. and at 75% RH, Time = 6 months, consistent with T = 0): Crystalline
Storage stability (stored at 25° C. and 60% RH): stable
Storage stability (stored at 40° C. and at 75% RH): stable
Compound: Cc1cc(CN(C)C)ccc1-c1cnc(NCc2c(F)ccc3c2CCO3)n2cc(C#N)nc12 [Form 2 of Compound 1, 8-(4-((dimethylamino)methyl)-2-methylphenyl)-5-(((5-fluoro-2,3-dihydrobenzofuran-4-yl)methyl)amino)imidazo[1,2-c]pyrimidine-2-carbonitrile]
